TGI and GI50 data for 10 compounds are collected here from PubChem BioAssay (NCI).

Each structure is given as a SMILES string.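 Each compound was tested at five concentrations against cells in 96-well plates for 48 hours. GI50 marks 50% less growth. TGI denotes the concentration required for complete inhibition of growth.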

What all share (assay): growth of human tumour cells (NCI), 48 h
Assay [1] concerns M14 melanoma.
For assay [2], the system named is SW-620 colon.
Assay [3] concerns MDA-MB-435.
In assay [4] the test system is OVCAR-5 ovarian.
Assay [5] has as its system A549 NSCLC.
The test system of assay [6] is HS 578T breast.
Assay [7] deals with MALME-3M melanoma.
Assay [8] relates to SK-MEL-2 melanoma.

Consider `NCCOc1ccccn1`, for which the TGI in assay [1], in assay [2], in assay [3], in assay [4], in assay [5] and in assay [6] was over 100 µM in each case. Besides, the TGI in assay [7] and in assay [8] was over 100 µM throughout.

With `CC(=O)Nc1ccc(C(=O)N[C@@H]2C(=O)N3[C@@H]2SC(C)(C)[C@@H]3C(=O)O)cn1`, the TGI in assay [1], in assay [2], in assay [3], in assay [4], in assay [5] and in assay [6] was over 100 µM each time. In addition, the TGI in assay [7] and in assay [8] was over 100 µM throughout.

`Cn1cccc1-c1cc(-c2ccc(Br)cc2)nc(N)c1C#N`: the GI50 in assay [2], in assay [3], in assay [4], in assay [5], in assay [6] and in assay [7] was over 100 µM in each case. Besides, the GI50 in assay [8] was over 100 µM. Also, the TGI in assay [2], in assay [3], in assay [4], in assay [5], in assay [6] and in assay [7] was over 100 µM throughout. Moreover, the TGI in assay [8] was over 100 µM.

Turning to `COc1ccc(C2CC(c3cc(OC)c(OC)c(OC)c3)=NN2)cc1` (configuration not stated), the GI50 was 13.3 µM in assay [1]; 4.58 µM in assay [2]; 2.96 µM in assay [3]; 49.3 µM in assay [4]; 6.23 µM in assay [5]; 14.4 µM in assay [6]. Further, the GI50 in assay [7] was 24.7 µM. The TGI in assay [1] is over 100 µM; in assay [2] it was over 100 µM; in assay [3], 20.9 µM; in assay [4], over 100 µM; in assay [5], over 100 µM; in assay [6], 98.3 µM. The TGI in assay [7] was over 100 µM.

Regarding `CC(C)(C)c1ccc(-c2nnc(SCc3ccc(Cl)cc3)n2-c2cccc(C(F)(F)F)c2)cc1`, the TGI was over 100 µM in assay [1]; over 100 µM in assay [2]; over 100 µM in assay [3]; over 96.1 µM in assay [4]; over 100 µM in assay [5]; over 100 µM in assay [6]. In addition, the TGI in assay [7] was over 100 µM; in assay [8], over 69.5 µM.

As to `Cn1c(=O)c(Cc2ccc(F)cc2F)cc2cnc(NC3CCOCC3)nc21`, the GI50 is over 25 µM in assay [1]; over 25 µM in assay [2]; over 25 µM in assay [3]; over 25 µM in assay [4]; over 25 µM in assay [5]; over 23.6 µM in assay [6]. The GI50 in assay [7] and in assay [8] was over 25 µM throughout. In addition, the TGI in assay [1], in assay [2], in assay [3], in assay [4], in assay [5] and in assay [6] was over 25 µM each time. Besides, the TGI in assay [7] and in assay [8] was over 25 µM throughout.

Regarding `COC(=O)c1ccc2c(c1)nc(-c1ccc(Cl)cc1)n2-c1cc(C(C)(C)C)[nH]n1`, the GI50 in assay [1] is 2.9 µM; in assay [2], 3.24 µM; in assay [3] it was 1.19 µM; in assay [4] it was 12.9 µM; in assay [5], 4.03 µM; in assay [6], 1.72 µM. Moreover, the GI50 in assay [7] is 3.25 µM; in assay [8], 3.89 µM. The TGI was 8.22 µM in assay [1]; over 100 µM in assay [2]; 5 µM in assay [3]; 60.1 µM in assay [4]; 94.5 µM in assay [5]; 7.16 µM in assay [6]. The figures for the TGI in assay [7] and in assay [8] were 15.6 µM and 18.1 µM, respectively.

Turning to `COc1cc2c(/C=C3\C(=O)Nc4ccc(Br)cc43)c(Cl)n(C)c2cc1C`, the GI50 was 1.8 µM in assay [1]; 3.09 µM in assay [2]; 0.249 µM in assay [3]; 4.11 µM in assay [4]; 2.56 µM in assay [5]; 0.517 µM in assay [6]. Moreover, the GI50 in assay [7] was 2.75 µM; in assay [8] it was 1.74 µM. Also, the TGI in assay [1] amounted to 6.01 µM; in assay [2], 15.4 µM; in assay [3], 0.802 µM; in assay [4], 15.9 µM; in assay [5], 14.5 µM; in assay [6] it was 3.46 µM. In addition, the TGI in assay [7] is 10 µM; in assay [8], 5.7 µM.

For `O=[N+]([O-])c1ccc2[nH]cc(-c3c4ccccc4cc4[nH]c5ccc([N+](=O)[O-])cc5c34)c2c1`, the GI50 in assay [1] was 1.67 µM; in assay [2], 2.73 µM; in assay [3] it was 1.8 µM; in assay [4] it was 2.21 µM; in assay [5] it was 2.07 µM; in assay [6], 2.35 µM. The GI50 in assay [7] was 2.32 µM; in assay [8], 2.18 µM. The TGI in assay [1] is 3.22 µM; in assay [2] it was 8.84 µM; in assay [3], 4.89 µM; in assay [4], 5.94 µM; in assay [5] it was 4.8 µM; in assay [6], 8.19 µM. Besides, the results for the TGI in assay [7] and in assay [8] were 6.77 µM and 5.34 µM, respectively.

With `CCN1C(=O)N(c2c(F)c(OC)cc(OC)c2F)Cc2cnc3[nH]c(CN4CCOCC4)cc3c21`, the GI50 in assay [1] is 1.32 µM; in assay [2] it was 3.51 µM; in assay [3], 4.65 µM; in assay [4] it was 9.23 µM; in assay [5], 2.83 µM; in assay [6], 1.82 µM. Moreover, the GI50 in assay [7] is 1.45 µM; in assay [8], 1.08 µM. Moreover, the TGI in assay [1], in assay [2], in assay [3], in assay [4], in assay [5] and in assay [6] was over 100 µM each time. In addition, the TGI in assay [7] amounted to 20.2 µM; in assay [8] it was 41.8 µM.
